A short description of data set [1]: Stability in CD1 mouse small intestine homogenate assessed as hydrolysis rate minute at 96 uM. It counts as ADME, tissue-based. To be noted: tissue homogenate.
Data set [2] in a line: Stability in human small intestine homogenate assessed as hydrolysis rate at 96 uM. It counts as ADME, tissue-based. To be noted: tissue homogenate.
Data set [3] is described as follows: Stability in CD1 mouse small intestine homogenate assessed as hydrolysis rate after 30 mins at 96 uM. It counts as ADME, tissue-based. To be noted: read-out: Activity.
Data set [4] in a line: Stability in human small intestine homogenate assessed as hydrolysis rate after 30 mins at 96 uM. It counts as ADME, tissue-based. To be noted: read-out: Activity.
The nature of data set [5]: Stability in human Caco-2 cell homogenate assessed as half life. It counts as ADME, Colon.
In another data set the test system is Blood. The data set is described as follows: Drug level in CD1 mouse portal blood assessed as gemcitabine level at 14.3 mg/kg, po after 5 mins. In kind it is ADME, organism-based. Also on record: dose 14.3 mg/kg, route oral. To be noted: in vivo.
The subject of data set [6] is HCT-116. Kind of data set: Antitumor activity in human HCT116 cells xenografted CD1 mouse assessed as maximum tumor reduction at 160 mg/kg, ip administered as total 4 doses for every 3 days measured after 6 weeks. In kind it is functional. Set-up: scale not given: the % may be the effect or the level left. To be noted: route intraperitoneal. (In general: A xenograft is tissue or cells of one species grown in another, often human tumour cells in immunodeficient mice.)

The nature of data set [7]: Chemical stability in buffer solution assessed as hydrolysis at pH 1 after 4 hrs at 40 degC. It counts as physicochemical. To be noted: read-out: solubility.
A short description of data set [8]: Chemical stability in buffer solution assessed as hydrolysis at pH 2 after 4 hrs at 40 degC. It counts as physicochemical. To be noted: read-out: solubility.
Data set [9] can be described thus: Chemical stability in buffer solution assessed as hydrolysis at pH 4 after 4 hrs at 40 degC. In kind it is physicochemical. To be noted: read-out: solubility.
Data set [10] in a line: Chemical stability in buffer solution assessed as hydrolysis at pH 6 after 4 hrs at 40 degC. It counts as physicochemical. To be noted: read-out: solubility.
Data set [11] can be described thus: Chemical stability in buffer solution assessed as hydrolysis at pH 8 after 4 hrs at 40 degC. It counts as physicochemical. To be noted: read-out: solubility.
Data set [12] is described as follows: Solubility in buffer solution at pH 1 after 4 hrs at 40 degC. In kind it is physicochemical. To be noted: pH 1, 4 h.
Data set [13] in a line: Solubility in buffer solution at pH 2 after 4 hrs at 40 degC. To be noted: pH 2, 4 h. In kind it is physicochemical.
Data set [14] is described as follows: Solubility in buffer solution at pH 4 after 4 hrs at 40 degC. In kind it is physicochemical. To be noted: pH 4, 4 h.
Data set [15] can be described thus: Solubility in buffer solution at pH 6 after 4 hrs at 40 degC. To be noted: pH 6, 4 h. In kind it is physicochemical.
The nature of data set [16]: Solubility in buffer solution at pH 8 after 4 hrs at 40 degC. It counts as physicochemical. To be noted: pH 8, 4 h.
Data set [17] can be described thus: Stability in human liver S9 fraction assessed as hydrolysis rate at 100 uM. It counts as ADME, subcellular. To be noted: s9, 100 µM.
A short description of data set [18]: Drug level in CD1 mouse portal blood at 14.3 mg/kg, po after 5 mins. Set-up: dose 14.3 mg/kg, route oral. To be noted: read-out: Drug uptake. In kind it is ADME, organism-based.
For data set [19], the system named is Mus musculus. Kind of data set: Gemcitabine AUC in CD1 mouse at 14.3 mg/kg, po. It counts as ADME, organism-based. Also on record: dose 14.3 mg/kg, route oral. To be noted: in vivo.
Data set [20] deals with Mus musculus. Kind of data set: Gemcitabine Cmax in CD1 mouse at 14.3 mg/kg, po. In kind it is ADME, organism-based. Also on record: dose 14.3 mg/kg, route oral. To be noted: in vivo.
Data set [21] is described as follows: AUC in po dosed CD1 mouse. It counts as ADME, organism-based. To be noted: plasma.
Data set [22] can be described thus: Cmax in po dosed CD1 mouse. It counts as ADME, organism-based. Also on record: route oral. To be noted: in vivo.
Data set [23] can be described thus: Tmax in po dosed CD1 mouse. To be noted: in vivo. It counts as ADME, organism-based.
Data set [24] relates to HCT-116. Kind of data set: Antitumor activity in human HCT116 cells xenografted CD1 mouse assessed as maximum tumor reduction at 3.77 mg/kg, po administered daily for 14 days measured after 6 weeks. It counts as functional. Set-up: scale not given: the % may be the effect or the level left.
Data set [25] relates to HCT-116. Kind of data set: Antitumor activity in human HCT116 cells xenografted CD1 mouse assessed as maximum tumor reduction at 7.55 mg/kg, po administered daily for 14 days measured after 6 weeks. In kind it is functional. Also on record: scale not given: the % may be the effect or the level left.
A short description of data set [26]: Stability in CD1 mouse liver S9 fraction assessed as hydrolysis rate at 100 uM. It counts as ADME, subcellular. To be noted: s9, 100 µM.

A value given as a limit tells only on which side of the number the result lay.

As usually defined, the half-life is the time in which the quantity being followed falls by half. As to `CC[C@H](C)[C@H](N)C(=O)OC[C@H]1O[C@@H](n2ccc(N)nc2=O)C(F)(F)[C@@H]1O`, the results for the Activity in data set [1] and in data set [2] were 2.3 nmol/mg/min and 3.7 nmol/mg/min, respectively. Besides, the metabolised at 0.5 h, 96 µM in data set [3] and in data set [4] was 100% in each case. The half-life in data set [5] was 75 min.
For the compound `Cl.Nc1ccn([C@@H]2O[C@H](CO)[C@@H](O)C2(F)F)c(=O)n1` [GEMCITABINE HYDROCHLORIDE], the Drug uptake with Blood stood at 99 ng/mL. Also, in the data set on HCT-116 [6], the Activity turned out to be 71.5%.
As usually defined, the AUC is concentration integrated over time. By Cmax is commonly meant the peak of the concentration-time curve. Usually Tmax stands for the time at which the peak concentration occurs. Regarding `CCCC(CCC)C(=O)Nc1ccn([C@@H]2O[C@H](CO)[C@@H](O)C2(F)F)c(=O)n1` [LY-2334737], the degraded at 4 h stood at 21% in data set [7]; 12% in data set [8]; 2% in data set [9]; 0% in [10]; 0% in data set [11]. Also, the solubility in data set [12] is recorded as 1.12%; in data set [13] it was 1.79%; in data set [14], over 2%; in data set [15], over 2%. The Activity in [16] was over 2%; in data set [1], under 0.01 nmol/mg/min; in [2], under 0.01 nmol/mg/min; in [17] it was 27 pmol/min/mg; in the data set on HCT-116 [24], 56.3%; in the data set on HCT-116 [25], 67.1%. In addition, the Activity in data set [26] is 11 pmol/mg/min. Besides, the metabolised at 0.5 h, 96 µM in data set [3] and in data set [4] was 1% each time. For the same compound, the concentration at 5 min in data set [18] is 653 ng/mL. Further, the area under the curve (AUC) in the data set with Mus musculus [19] was 778 ng·h/mL; in data set [21], 536 ng·h/mL. Also, the Cmax amounted to 373 ng/mL with Mus musculus [20] and 535 ng/mL in data set [22]. Moreover, the Tmax in [23] worked out at 30 min.
